The numbers were not newly measured in patent publication US20230360801A1, “METHODS AND SYSTEMS OF IDENTIFYING INDIVIDUALS FOR PERIOPERATIVE NEUROCOGNITIVE DISORDER AND/OR POST-VIRAL COGNITIVE IMPAIRMENT” (Cambridge Cognition Limited, priority 2021, published 2023), which cites them from elsewhere.

Broadly, the logP is the decadic logarithm of the partition coefficient of the neutral form, usually between octanol and water.

As to `CC(C)(Oc1ccc(C(=O)c2ccc(Cl)cc2)cc1)C(=O)O` [fenofibric acid], the logP was 3.9.
